In patent US20100113460A1, “Organic Compounds” (Givaudan SA, priority 2007, published 2010) one finds IC50 data, which are given here for 47 compounds.

For one series, the target named is T1, CYP2A6 (Homo sapiens, UniProt P11509).
T1 construct: purchased BD Biosciences Gentest, USA
T1 sequence (P11509 1-494): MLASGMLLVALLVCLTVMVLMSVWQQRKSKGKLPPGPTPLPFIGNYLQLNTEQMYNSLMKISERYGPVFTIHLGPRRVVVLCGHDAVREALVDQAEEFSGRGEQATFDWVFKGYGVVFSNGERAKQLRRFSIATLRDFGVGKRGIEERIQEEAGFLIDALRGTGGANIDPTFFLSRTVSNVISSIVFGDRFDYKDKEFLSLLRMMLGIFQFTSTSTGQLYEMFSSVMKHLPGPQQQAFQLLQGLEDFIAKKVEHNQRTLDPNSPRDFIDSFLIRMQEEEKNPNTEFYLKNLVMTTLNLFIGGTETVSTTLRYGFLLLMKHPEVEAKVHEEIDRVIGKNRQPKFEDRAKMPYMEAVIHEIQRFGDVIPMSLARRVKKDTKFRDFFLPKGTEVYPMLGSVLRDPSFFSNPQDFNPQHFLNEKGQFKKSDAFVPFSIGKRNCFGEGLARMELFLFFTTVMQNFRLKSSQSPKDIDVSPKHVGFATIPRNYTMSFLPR
The experiment in a line: CYP2A6 inhibition, coumarin to Umbelliferone fluorescence assay in microsomes. As to conditions: substrate coumarin 0.003 mM, 60 min at 37° C.; read-out: CYP2A6 inhibitor activity IC50. The class given is biochemical. The protocol: Test compounds that inhibit the activity of CYP2A6 are identified by using the same principle as described in Example 28, first paragraph.
A test compound (details see list below) was incubated with CYP2A6 in the presence of a cytochrome P450 reductase. CYP2A6 and P450 reductase were employed in form of microsomes (BD Biosciences Gentest, USA). Microsomes were used which contained 2 pmoles CYP2A6 and an amount of NADPH-P450 reductase corresponding to cytochrome c reductase activity of 87 nmole/(min×mg protein). […] The concentration of the standard substrate coumarin was 0.003 mM.
The samples were analysed spectrofluorometrically according to the procedure described in Example 28.
One may read the IC50 as the concentration at which inhibition is half-maximal. Regarding `CCCCCCC1=C(C)CCC1=O` [Compound ID 3, 2-hexyl-3-methylcyclopent-2-enone], the IC50 was found to be 13 µM. On the same count and under the same terms, for `CC/C=C\CC1=C(C)CCC1=O` [Compound ID 10, (Z)-3-methyl-2-(pent-2-enyl)cyclopent-2-enone] the value was 54 µM. On the same count and under the same terms, for `CCCCC1OC(=O)CC1C` (stereo not shown) [Compound ID 11, 4-methyl-5-butyldihydrofuran-2(3H)-one] the value was 56 µM; for `CCCCCn1ccnc1` [Compound ID 28, 1-pentyl-1H-imidazole], 2 µM. The same measure, in the same setting: for `CC/C=C\Cn1ccnc1` [Compound ID 54, (Z)-1-(pent-2-enyl)-1H-imidazole] the value was 7 µM.

Another series addresses T2, CYP2A13 (Homo sapiens, UniProt Q16696).
T2 sequence (Q16696 1-494): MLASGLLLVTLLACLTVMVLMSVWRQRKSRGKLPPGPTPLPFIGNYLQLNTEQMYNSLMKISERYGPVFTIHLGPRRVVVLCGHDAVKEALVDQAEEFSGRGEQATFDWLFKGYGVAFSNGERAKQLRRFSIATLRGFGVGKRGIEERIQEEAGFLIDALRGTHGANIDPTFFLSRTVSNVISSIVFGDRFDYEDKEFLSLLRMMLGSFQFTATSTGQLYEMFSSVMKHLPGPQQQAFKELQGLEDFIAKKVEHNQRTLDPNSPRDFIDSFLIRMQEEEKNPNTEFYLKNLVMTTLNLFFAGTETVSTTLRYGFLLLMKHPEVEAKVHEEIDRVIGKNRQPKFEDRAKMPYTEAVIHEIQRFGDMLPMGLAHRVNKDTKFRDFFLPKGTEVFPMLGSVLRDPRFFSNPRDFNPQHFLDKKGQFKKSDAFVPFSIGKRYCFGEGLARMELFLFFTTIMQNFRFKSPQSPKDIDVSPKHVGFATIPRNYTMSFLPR
The experiment in a line: CYP2A13 inhibition, coumarin to 7-hydroxy-coumarin (Umbelliferone) fluorescence assay in microsomes.
Conditions: not given
As for `CCC=CCCC1(C)CCC(=O)O1` (mixture of isomers) [Compound ID 62, (E/Z)-5-(hex-3-enyl)-5-methyldihydrofuran-2(3H)-one], the IC50 worked out at 12.5 µM. On the same count and under the same terms, for `CCCCCCC1=C(C)CCC1=O` [Compound ID 3, 2-hexyl-3-methylcyclopent-2-enone] the value was 0.4 µM; for `CCCCCC1=C(C)CCC1=O` [Compound ID 7, 2-pentyl-3-methylcyclopent-2-enone], 1.2 µM; for `CCCCCC12CC1(C)CCC2=O` (stereo not shown) [Compound ID 8], 1.4 µM. As to `CC/C=C\CC1=C(C)CCC1=O` [Compound ID 10, (Z)-3-methyl-2-(pent-2-enyl)cyclopent-2-enone], the IC50 came to 1.6 µM.

Turning to `CCCCC1OC(=O)CC1C` (stereo not shown) [Compound ID 11, 4-methyl-5-butyldihydrofuran-2(3H)-one], the IC50 is 1.6 µM. Same read-out and setting: for `CCCCCC1OC(=O)CC1C` (stereo not shown) [Compound ID 12, 4-methyl-5-pentyldihydrofuran-2(3H)-one] the value was 1.7 µM; for `c1nc2c(o1)CCCCCCCCC2` [Compound ID 14, 5,6,7,8,9,10,11,12-octahydro-4H-cycloundeca[d]oxazole], 2 µM; for `CC/C=C\CC1C(=O)CCC1C` (stereo not shown) [Compound ID 17], 2.8 µM. As to `CCCCC/C=C/CC1CCCC1=O` (stereo not shown) [Compound ID 18, (E)-2-(oct-2-enyl)cyclopentanone], half-maximal inhibition (IC50) was put at 2.8 µM. On the same count and under the same terms, for `CCCCCN1C(=O)CC[C@H]1C(=O)OCC` [Compound ID 19] the value was 3 µM; for `CC/C=C\CC1CCCC(=O)O1` (stereo not shown) [Compound ID 22, (Z)-6-(pent-2-enyl)tetrahydro-2H-pyran-2-one], 3.3 µM. On the same count and under the same terms, for `c1cnc2c(c1)CCCCCCCCCC2` [Compound ID 24, 5,6,7,8,9,10,11,12,13,14-decahydrocyclododeca[b]pyridine] the value was 3.5 µM; for `CC/C=C\C[C@@H]1C(=O)CC[C@@H]1CC(=O)OC` [Compound ID 25, (Z)-methyl 2-(3-oxo-2-(pent-2-enyl)cyclopentyl)acetate], 3.5 µM. On the same count and under the same terms, for `c1ncc2c(n1)CCCCCCCC2` [Compound ID 26, 5,6,7,8,9,10,11,12-octahydrocyclodeca[d]pyrimidine] the value was 3.7 µM; for `CCCCCCC1CCCC1=O` (stereo not shown) [Compound ID 27, 2-hexylcyclopentanone], 4.2 µM; for `CCCCCn1ccnc1` [Compound ID 28, 1-pentyl-1H-imidazole], 4.2 µM.

`CCC1CCC2(CCC(=O)O2)CC1` (stereo not shown) [Compound ID 29, 8-ethyl-1-oxaspiro[4.5]decan-2-one] showed an IC50 of 4.3 µM. Same read-out and setting: for `CCCCCCC1=CCCC1=O` [Compound ID 30, 2-hexylcyclopent-2-enone] the value was 4.5 µM; for `CCCCCCC1(C)CCC(=O)O1` (stereo not shown) [Compound ID 31, 5-hexyl-5-methyldihydrofuran-2(3H)-one], 4.6 µM. The compound `CCCCCC1C(=O)CCC1C` (stereo not shown) [Compound ID 32, 3-methyl-2-pentylcyclopentanone] displayed an IC50 of 4.8 µM. `c1nc2c([nH]1)CCCCCCCCC2` [Compound ID 35, 1,4,5,6,7,8,9,10,11,12-decahydrocycloundeca[d]imidazole] gave an IC50 of 5 µM. The same measure, in the same setting: for `O=C1CCCCCCCCCCCN1` [Compound ID 36, azacyclotridecan-2-one] the value was 5.2 µM; for `CCCCCC1C(=O)CCC1CC(=O)OC` (stereo not shown) [Compound ID 37, methyl 2-(3-oxo-2-pentylcyclopentyl)acetate], 5.2 µM. The compound `c1cnc2c(n1)CCCCCCCCCC2` [Compound ID 42, 5,6,7,8,9,10,11,12,13,14-decahydrocyclododeca[b]pyrazine] displayed an IC50 of 6.1 µM. On the same count and under the same terms, for `c1nnc2n1CCCCCCCCCCC2` [Compound ID 43, 6,7,8,9,10,11,12,13,14,15-decahydro-5H-[1,2,4]triazolo[4,3-a][1]azacyclotridecine] the value was 6.3 µM; for `O=C1CCC2CCCCC2O1` (stereo not shown) [Compound ID 45, octahydrocoumarin], 6.6 µM.

In turn, `CCCCCCC1CCC(=O)O1` (stereo not shown) [Compound ID 47, 5-hexyldihydrofuran-2(3H)-one] gave an IC50 of 7.2 µM. On the same count and under the same terms, for `CCCCCCN1C(=O)CCC1C` (stereo not shown) [Compound ID 48] the value was 7.4 µM. Same read-out and setting: for `CCOC(=O)CCCn1ccnc1` [Compound ID 49, ethyl 4-(1H-imidazol-1-yl)butanoate] the value was 7.7 µM; for `CCCCCC1C(=O)C(C)CC1C(=O)OC` (stereo not shown) [Compound ID 50, Methyl 4-methyl-3-oxo-2-pentylcyclopentanecarboxylate], 7.8 µM; for `CCCCCC1=CCCC1=O` [Compound ID 51, 2-pentylcyclopent-2-enone], 8.3 µM.

Turning to `CC/C=C/CC1=C(CC(=O)OC)CCC1=O` [Compound ID 52], inhibition was half-maximal at 8.3 µM (IC50). On to `c1cn2c(n1)CCCCCCCCCC2` [Compound ID 53, 5,6,7,8,9,10,11,12,13,14-decahydroimidazo[1,2-a][1]azacyclododecine], for which the half-maximal inhibitory concentration (IC50) was 8.5 µM. Still for that read-out and setting: for `CC/C=C\Cn1ccnc1` [Compound ID 54, (Z)-1-(pent-2-enyl)-1H-imidazole] the value was 9.4 µM. On the same count and under the same terms, for `N#CCCCCn1ccnc1` [Compound ID 55, 5-(1H-imidazol-1-yl)pentanenitrile] the value was 9.5 µM; for `c1nc2c([nH]1)CCCCCCCCCC2` [Compound ID 59, 4,5,6,7,8,9,10,11,12,13-decahydro-1H-cyclododeca[d]imidazole], 11.5 µM; for `c1nc2c(o1)CCCCCC2` [Compound ID 60, 4,5,6,7,8,9-hexahydrocycloocta[d]oxazole], 11.4 µM.

The compound `CC/C=C\CCOC(=O)C1CCCC1=O` (stereo not shown) [Compound ID 61] displayed an IC50 of 12.7 µM.

Compound `CCCCC1CCC(=O)O1` (stereo not shown) [Compound ID 63, 5-butyldihydrofuran-2(3H)-one] registered a concentration for half-maximal inhibition (IC50) of 15.1 µM. The same measure, in the same setting: for `c1cn2c(n1)CCCCCCCCCCC2` [Compound ID 64, 6,7,8,9,10,11,12,13,14,15-decahydro-5H-imidazo[1,2-a][1]azacyclotridecine] the value was 14.6 µM. On the same count and under the same terms, for `O=C1CCCCCCCCCCN1` [Compound ID 65, azacyclododecan-2-one] the value was 15.6 µM; for `OCCCCn1ccnc1` [Compound ID 68, 4-(1H-imidazol-1-yl)butan-1-ol], 16.1 µM.

Take `CC1CCC2(CCC(=O)O2)CC1` (stereo not shown) [Compound ID 69, 8-methyl-1-oxaspiro[4.5]decan-2-one]: it took 17.6 µM to reach half-maximal inhibition (IC50).

The same series, now with this note: read-out: CYP2A13 inhibitor activity IC50; substrate coumarin 0.006 mM, 60 min at 37° C.
For the compound `CC(C)CCn1ccnc1` [Compound ID 39, 1-isopentyl-1H-imidazole], the IC50 is 5.6 µM. The same measure, in the same setting: for `CC(C)=CCn1ccnc1` [Compound ID 40, 1-(3-methylbut-2-enyl)-1H-imidazole] the value was 5.7 µM.

As for `CC/C=C/CCn1ccnc1` [Compound ID 46, (E)-1-(hex-3-enyl)-1H-imidazole], the IC50 came to 6.8 µM.
